Data taken from patent US10959432B2, “Microbiocidal oxadiazole derivatives” (Syngenta Participations AG, priority 2016, dated 2021).
“And” between values parts separate entries of the source, which are not always exact repeats. Identical values can stand only once.

What was measured:
[1] = system: Glomerella laqenarium (Colletotrichum lagenarium); experiment: Fungicidal activity against Glomerella lagenarium (Colletotrichum lagenarium) liquid culture / cucumber / preventative (anthracnose); assay type: cell-based; conditions: Colletotrichum orbiculare; 20 ppm in the applied formulation; liquid culture in PDB, 24° C., 3 to 4 days after application; read-out: disease control compared to untreated control (inhibition of growth measured photometrically)
How it was run: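 Cryostored conidia mixed into potato dextrose broth and added to test compound (from DMSO solution) in microtiter plates. Incubated at 24 °C; growth inhibition read photometrically 3 to 4 days after application, as percent activity versus untreated check.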

[2] = system: Puccinia recondita f. sp. tritici; experiment: Fungicidal activity against Puccinia recondita f. sp. tritici / wheat / leaf disc curative (brown rust); assay type: in vivo; conditions: foliar, 200 ppm in the applied formulation, wheat leaf segments cv. Kanzler, curative (applied 1 day after inoculation), assessed 6 to 8 days after application, read-out: disease control compared to untreated control leaf disks
How it was run: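 Wheat cv. Kanzler leaf segments on agar, spore-inoculated, held dark at 19° C./75% RH; formulated compound in water sprayed 1 day post-inoculation (curative). Incubated 19° C., 75% RH, 12 h light/12 h dark; percent disease control vs untreated scored 6 to 8 days after application.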

Uromyces viciae-fabae = experiment: Fungicidal activity against Uromyces viciae-fabae / field bean / leaf disc preventative (faba-bean rust); assay type: in vivo; conditions: foliar, 288 h, 100 ppm in the applied formulation, field bean leaf discs, preventative (inoculated two hours after application), assessed 12 days after application, read-out: disease control compared to untreated control leaf discs
How it was run: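 Field bean leaf discs on water agar treated with 10 μl compound in acetone plus spreader, then spray-inoculated on the lower surface with Uromyces viciae-fabae spores 2 h later. Incubation at 22 °C, 18 h day, 70% RH; percent disease control versus untreated scored 12 days after application, compounds at 100 ppm.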

Phakopsora pachyrhizi = experiment: Fungicidal activity against Phakopsora pachyrhizi / soybean / leaf disc preventative (Asian soybean rust); assay type: in vivo; conditions: foliar, 200 ppm in the applied formulation, soybean leaf disks, preventative (inoculated one day after application), assessed 12 to 14 days after application, read-out: disease control compared to untreated control leaf disks
How it was run: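 Soybean leaf discs on water agar sprayed with formulated compound diluted in water; spore suspension sprayed on lower leaf surface one day later. Incubated 24-36 h dark at 20° C, 75% rh, then 20° C, 12 h light/day, 75% rh. Percent disease control versus untreated scored 12 to 14 days after application.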

[3] = system: Puccinia recondita f. sp. tritici; experiment: Fungicidal activity against Puccinia recondita f. sp. tritici / wheat / leaf disc preventative (brown rust); assay type: in vivo; conditions: foliar, 200 ppm in the applied formulation, wheat leaf segments cv. Kanzler, preventative (inoculated 1 day after application), assessed 7 to 9 days after application, read-out: disease control compared to untreated control leaf disks
How it was run: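 Wheat cv. Kanzler leaf segments on agar sprayed with formulated compound diluted in water, inoculated with P. recondita spores 1 day later. Incubated at 19C, 75% rh, 12 h light/12 h dark; scored 7 to 9 days after application as percent disease control versus untreated segments. Test rate 200 ppm.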

With `O=C(NCC1CCOCC1)c1ccc(-c2noc(C(F)(F)F)n2)cc1F` [Compound 1b.18, 2-fluoro-N-(tetrahydropyran-4-ylmethyl)-4-[5-(trifluoromethyl)-1,2,4-oxadiazol-3-yl]benzamide] the inhibition at 20 ppm [1] was ≥ 80%, the pest or weed control at 200 ppm [2] was ≥ 80% and the melting point was 134 to 136 °C and 134 to 135.4 °C. For the same compound, the pest or weed control at 100 ppm (Uromyces viciae-fabae) was ≥ 80%, the pest or weed control at 200 ppm (Phakopsora pachyrhizi) was ≥ 80% and the pest or weed control at 200 ppm [3] was ≥ 80%.

For `O=C(NCC1CCOC1)c1ccc(-c2noc(C(F)(F)F)n2)cc1F` (stereo not drawn) [Compound 1b.16, 2-fluoro-N-(tetrahydrofuran-3-ylmethyl)4[5(trifluoromethyl)-1,2,4-oxadiazol-3-yl]benzamide], the inhibition at 20 ppm [1] was ≥ 80%, the pest or weed control at 200 ppm [2] was ≥ 80% and the melting point was 124.2 to 126.2 °C. The pest or weed control at 100 ppm (Uromyces viciae-fabae) was ≥ 80%, the pest or weed control at 200 ppm (Phakopsora pachyrhizi) was ≥ 80% and the pest or weed control at 200 ppm [3] was ≥ 80%.

For `N#CC(NC(=O)c1ccc(-c2noc(C(F)(F)F)n2)cc1F)c1cccs1` (stereo not drawn) [Compound 5b.20, N-[cyano(2-thienyl)methyl]-2-fluoro-4-[5-(trifluoromethyl)-1,2,4-oxadiazol-3-yl]benzamide], the inhibition at 20 ppm [1] was ≥ 80%, the pest or weed control at 200 ppm [2] was ≥ 80% and the melting point was 138.1 to 139.2 °C. For the same compound, the pest or weed control at 100 ppm (Uromyces viciae-fabae) was ≥ 80%, the pest or weed control at 200 ppm (Phakopsora pachyrhizi) was ≥ 80% and the pest or weed control at 200 ppm [3] was ≥ 80%.

For `CCCNC(=O)c1ccc(-c2noc(C(F)(F)F)n2)cc1F` [Compound 3b.1, 2-fluoro-N-propyl-4-[5-(trifluoromethyl)-1,2,4-oxadiazol-3-yl]benzamide], the inhibition at 20 ppm [1] was ≥ 80%, the pest or weed control at 200 ppm [2] was ≥ 80% and the melting point was 118.5 to 119.9 °C. The pest or weed control at 100 ppm (Uromyces viciae-fabae) was ≥ 80%, the pest or weed control at 200 ppm (Phakopsora pachyrhizi) was ≥ 80% and the pest or weed control at 200 ppm [3] was ≥ 80%.

In the case of `CCNC(=O)c1ccc(-c2noc(C(F)(F)F)n2)cc1F` [Compound 3b.2, N-ethyl-2-fluoro-4-[5-(trifluoromethyl)-1,2,4-oxadiazol-3-yl]benzamide], the inhibition at 20 ppm [1] is reported as ≥ 80%, the pest or weed control at 200 ppm [2] is reported as ≥ 80% and the melting point is reported as 125 to 127 °C. The pest or weed control at 100 ppm (Uromyces viciae-fabae) was ≥ 80%, the pest or weed control at 200 ppm (Phakopsora pachyrhizi) was ≥ 80% and the pest or weed control at 200 ppm [3] was ≥ 80%.

With `Cc1nc(CN(C)C(=O)c2ccc(-c3noc(C(F)(F)F)n3)cc2F)cs1` [Compound 5b.15, 2-fluoro-N-methyl-N-[(2-methylthiazol-4-yl)methyl]-4-[5-(trifluoromethyl)-1,2,4-oxadiazol-3-yl]benzamide] the inhibition at 20 ppm [1] was ≥ 80%, the pest or weed control at 200 ppm [2] was ≥ 80% and the melting point was 96.3 to 98.4 °C. For the same compound, the pest or weed control at 100 ppm (Uromyces viciae-fabae) was ≥ 80%, the pest or weed control at 200 ppm (Phakopsora pachyrhizi) was ≥ 80% and the pest or weed control at 200 ppm [3] was ≥ 80%.

With `CC(NC(=O)c1ccc(-c2noc(C(F)(F)F)n2)cc1)c1ccccc1` (stereo not drawn) [Compound 4a.5, N-(1-phenylethyl)-4-[5-(trifluoromethyl)-1,2,4-oxadiazol-3-yl]benzamide] the inhibition at 20 ppm [1] was ≥ 80%, the pest or weed control at 200 ppm [2] was ≥ 80% and the melting point was 144 to 148 °C. The pest or weed control at 100 ppm (Uromyces viciae-fabae) was ≥ 80%, the pest or weed control at 200 ppm (Phakopsora pachyrhizi) was ≥ 80% and the pest or weed control at 200 ppm [3] was ≥ 80%.

With `C#CC(C)(C)NC(=O)c1ccc(-c2noc(C(F)(F)F)n2)cc1F` [Compound 3b.8, N-(1,1-dimethylprop-2-ynyl)-2-fluoro-4-[5-(trifluoromethyl)-1,2,4-oxadiazol-3-yl]benzamide] the inhibition at 20 ppm [1] was ≥ 80%, the pest or weed control at 200 ppm [2] was ≥ 80% and the melting point was 69.2 to 69.7 °C. The pest or weed control at 100 ppm (Uromyces viciae-fabae) was ≥ 80%, the pest or weed control at 200 ppm (Phakopsora pachyrhizi) was ≥ 80% and the pest or weed control at 200 ppm [3] was ≥ 80%.

In the case of `COCCNC(=O)c1ccc(-c2noc(C(F)(F)F)n2)cc1F` [Compound 3b.6, 2-fluoro-N-(2-methoxyethyl)-4-[5-(trifluoromethyl)-1,2,4-oxadiazol-3-yl]benzamide], the inhibition at 20 ppm [1] is reported as ≥ 80%, the pest or weed control at 200 ppm [2] is reported as ≥ 80% and the melting point is reported as 87.6 to 89 °C. The pest or weed control at 100 ppm (Uromyces viciae-fabae) was ≥ 80%, the pest or weed control at 200 ppm (Phakopsora pachyrhizi) was ≥ 80% and the pest or weed control at 200 ppm [3] was ≥ 80%.
